This note sets out measurements from ChEMBL document CHEMBL1152335, “NMR strategy for unraveling structures of bioactive sponge-derived oxy-polyhalogenated diphenyl ethers” (J Nat Prod, 2009).

The target of the experiment is Induced myeloid leukemia cell differentiation protein Mcl-1 (Homo sapiens, UniProt Q07820). Put plainly: Inhibition of Bak binding to Mcl-1 by FRET assay.
Chain of Induced myeloid leukemia cell differentiation protein Mcl-1 (Q07820 whole entry): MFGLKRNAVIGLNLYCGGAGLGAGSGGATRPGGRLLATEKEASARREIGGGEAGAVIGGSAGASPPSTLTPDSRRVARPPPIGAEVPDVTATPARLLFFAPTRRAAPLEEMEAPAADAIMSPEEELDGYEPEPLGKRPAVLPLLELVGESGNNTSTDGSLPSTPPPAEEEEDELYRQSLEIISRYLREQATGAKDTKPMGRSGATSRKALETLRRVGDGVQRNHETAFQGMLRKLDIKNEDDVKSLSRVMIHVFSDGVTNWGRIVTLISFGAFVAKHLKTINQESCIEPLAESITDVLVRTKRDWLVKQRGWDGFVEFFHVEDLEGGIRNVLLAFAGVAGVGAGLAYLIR

Compound `Oc1c(Br)cc(Br)cc1Oc1c(Br)cc(Br)c(Br)c1O` came in with an IC50 of over 16.8 µM.
The compound `Oc1cc(Br)c(Br)c(Br)c1Oc1cc(Br)cc(Br)c1O` registered an IC50 of over 16.8 µM.
The compound `Oc1c(Br)cc(Br)cc1Oc1c(O)c(Br)c(Br)c(Br)c1Br` had an IC50 of over 14.8 µM.
In the case of `Oc1cc(Br)cc(Br)c1Oc1ccc(Br)cc1Br` it was 4.78 µM; in that of `COc1c(Br)c(Br)cc(Br)c1Oc1cc(Br)cc(Br)c1O`, over 16.4 µM.
In the case of `Oc1c(Br)c(Br)cc(Br)c1Oc1ccc(Br)cc1Br`, the IC50 is over 17.2 µM.
`Oc1c(Br)cc(Br)cc1Oc1c(O)c(Br)cc(Br)c1Br` returned an IC50 of over 16.8 µM.
`Oc1c(Br)cc(Br)cc1Oc1cc(Br)c(Br)c(Br)c1O`: the concentration for half-maximal inhibition (IC50) was over 16.8 µM.
